Among the test systems are 786-0; A549; EKVX; HCC 2998; HCT-116; HCT-15; IGROV-1; LOX IMVI; MOLT-4; NCI-H522; OVCAR-4; RPMI-8226; SF-539; UO-31; Hs-578T; MCF7; NCI/ADR-RES; PC-3; T47D.
Holding throughout (experiment): inhibition of tumour cell growth, NCI panel, 48 h

Experimental findings from ChEMBL document CHEMBL1201862, “PubChem BioAssay data set” (2004) are described below.

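Method: 48-hour compound exposure of cells in 96-well plates, five concentrations, linear interpolation of endpoints. At the GI50, growth is halved.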 Active and inactive are the calls of the source. Cut-off read from the data, not from the text of the source: active = GI50 up to about 1.1 µM and inactive = higher. Some results are limits rather than exact numbers.

`O=c1/c(=C/c2ccccc2[N+](=O)[O-])sc2nc3ccccc3n12`: the GI50 with 786-0 is 24.5 µM (inactive); in the assay with A549, 30.8 µM (inactive); with EKVX, > 100 µM (inactive); in the assay with HCC 2998 it was 30.8 µM (inactive); with HCT-116 it was 21.7 µM (inactive); with HCT-15 it was 17 µM. In addition, the GI50 in the assay with IGROV-1 was 30.5 µM (inactive); with LOX IMVI, 17.1 µM (inactive); with MOLT-4, > 46.1 µM (inactive); with NCI-H522, 35.4 µM (inactive); with OVCAR-4, > 46.5 µM (inactive); in the assay on RPMI-8226 it was 12.6 µM (inactive). In addition, the GI50 was 19.5 µM (inactive) in the assay on SF-539 and > 46.5 µM (inactive) in the assay with UO-31.
On to `COC1CCC(=O)N1CN(C(C)=O)c1ccc(C)cc1` (centres undefined), for which the GI50 is > 100 µM (inactive) in the assay on 786-0; > 100 µM (inactive) with A549; > 100 µM (inactive) in the assay with HCC 2998; > 100 µM (inactive) with HCT-116; over 100 µM with HCT-15; > 100 µM (inactive) in the assay with Hs-578T. In addition, the GI50 in the assay on LOX IMVI, with MCF7, in the assay with MOLT-4, in the assay on NCI/ADR-RES, in the assay with OVCAR-4 and in the assay on PC-3 was > 100 µM (inactive) in each case. Further, the GI50 with RPMI-8226, in the assay with SF-539, with T47D and in the assay on UO-31 was > 100 µM (inactive) each time.
For the molecule `c1cc2c(c(NC3=NCCO3)c1)CCC2`, the GI50 in the assay with 786-0 was > 100 µM (inactive); in the assay on A549 it was > 100 µM (inactive); in the assay with EKVX, > 100 µM (inactive); with HCT-116, > 100 µM (inactive); with HCT-15 it was over 100 µM; with Hs-578T, 78.2 µM (inactive). In addition, the GI50 in the assay on IGROV-1, in the assay with LOX IMVI, in the assay on MCF7, in the assay with MOLT-4, with NCI-H522 and in the assay on NCI/ADR-RES was > 100 µM (inactive) each time. The GI50 in the assay on OVCAR-4 was > 100 µM (inactive); in the assay on PC-3 it was 67 µM (inactive); in the assay with RPMI-8226, > 100 µM (inactive); with SF-539, > 100 µM (inactive); with T47D it was > 100 µM (inactive); in the assay on UO-31 it was > 100 µM (inactive).
As to `CSc1ccc(N2C(=O)C3c4[nH]c5ccccc5c4C4CCC(C(C)(C)C)CC4C3C2=O)cc1` (centres undefined), the GI50 is 14.9 µM (inactive) in the assay on 786-0; 15.3 µM (inactive) in the assay with A549; 20.7 µM (inactive) with EKVX; 15.6 µM (inactive) with HCC 2998; 5.24 µM (inactive) in the assay on HCT-116; 66.2 µM in the assay with HCT-15. Moreover, the GI50 in the assay with IGROV-1 is 13.8 µM (inactive); with LOX IMVI, 14 µM (inactive); in the assay with MOLT-4, 15.4 µM (inactive); with NCI-H522, 16.2 µM (inactive); in the assay on OVCAR-4 it was 10.3 µM (inactive); in the assay with RPMI-8226, 28.4 µM (inactive). In addition, the GI50 in the assay on SF-539 is 18.3 µM (inactive); with UO-31, 16.5 µM (inactive).
For `Nc1c2ccccc2nc2nccnc12`, the GI50 was > 100 µM (inactive) with 786-0; > 100 µM (inactive) in the assay with A549; 38.4 µM (inactive) in the assay with EKVX; > 100 µM (inactive) in the assay on HCC 2998; > 100 µM (inactive) in the assay with HCT-116; over 100 µM in the assay on HCT-15. The GI50 in the assay on IGROV-1 was 60.4 µM (inactive); in the assay with LOX IMVI, > 100 µM (inactive); in the assay on MOLT-4 it was > 100 µM (inactive); in the assay with NCI-H522, > 100 µM (inactive); with OVCAR-4, > 100 µM (inactive); with RPMI-8226, > 100 µM (inactive). For the same molecule, the GI50 in the assay with SF-539 and with UO-31 was > 100 µM (inactive) throughout.
Regarding `COC(=O)c1ccc2c(c1)CC1(C2)Cc2ccc3c(c2C1)CCC3` (centres undefined), the GI50 with 786-0 was 23.2 µM (inactive); in the assay with A549 it was 29.9 µM (inactive); in the assay with EKVX, 51.3 µM (inactive); in the assay with HCC 2998, 43 µM (inactive); in the assay with HCT-116, 23.6 µM (inactive); in the assay with HCT-15 it was 20.1 µM. For the same molecule, the GI50 is 37.9 µM (inactive) in the assay with Hs-578T; 42.8 µM (inactive) in the assay on IGROV-1; 20.8 µM (inactive) with LOX IMVI; 23.3 µM (inactive) with MCF7; 15 µM (inactive) in the assay on MOLT-4; 20.7 µM (inactive) in the assay on NCI-H522. The GI50 in the assay on OVCAR-4 is 0.809 µM (active); with PC-3, 6.98 µM (inactive); in the assay on RPMI-8226, 21.3 µM (inactive); with SF-539, 47.8 µM (inactive); in the assay on T47D, 14.3 µM (inactive).
As for `CC(=O)OCC1OC(n2c(=O)n(-c3ccccc3)c(=O)c3cc(Br)cc(Br)c32)C(OC(C)=O)C(OC(C)=O)C1OC(C)=O` (centres undefined), the GI50 in the assay on 786-0 is > 100 µM (inactive); in the assay with A549 it was > 100 µM (inactive); in the assay with EKVX, > 100 µM (inactive); with HCC 2998 it was > 100 µM (inactive); with HCT-116, > 100 µM (inactive); with HCT-15, over 100 µM. Besides, the GI50 in the assay with IGROV-1 was > 100 µM (inactive); in the assay on LOX IMVI, > 100 µM (inactive); in the assay on MOLT-4, > 100 µM (inactive); in the assay with NCI-H522, > 100 µM (inactive); in the assay with OVCAR-4, 7.5 µM (inactive); in the assay on RPMI-8226, > 100 µM (inactive). Besides, the GI50 in the assay with SF-539 and in the assay with UO-31 was > 100 µM (inactive) each time.
Consider `CS/C(c1ccccc1)=[N+](/C)[O-]`, for which the GI50 in the assay on 786-0 was > 100 µM (inactive); in the assay on A549, > 100 µM (inactive); in the assay on EKVX, > 100 µM (inactive); with HCC 2998, > 100 µM (inactive); in the assay with HCT-116, > 80 µM (inactive); with HCT-15 it was 18.1 µM. Also, the GI50 in the assay on IGROV-1 was > 100 µM (inactive); in the assay with LOX IMVI, > 43.3 µM (inactive); with MOLT-4, > 100 µM (inactive); in the assay with NCI-H522 it was > 100 µM (inactive); in the assay on OVCAR-4 it was > 100 µM (inactive); in the assay on RPMI-8226, > 56.2 µM (inactive). Besides, the GI50 with SF-539 and with UO-31 was > 100 µM (inactive) in each case.
`c1ccc(C2OC3(CCC[C@H]4C[C@H]43)O[C@H]2c2ccccc2)cc1` (some centres undefined): the GI50 is 57 µM (inactive) with 786-0; 43.2 µM (inactive) in the assay with A549; 32.8 µM (inactive) in the assay on EKVX; 39.9 µM (inactive) with HCC 2998; 31.8 µM (inactive) in the assay on HCT-116; 33.8 µM with HCT-15. For the same molecule, the GI50 with IGROV-1 is > 100 µM (inactive); with LOX IMVI, 24.2 µM (inactive); with MOLT-4, 25.8 µM (inactive); with NCI-H522, 22.7 µM (inactive); in the assay with OVCAR-4 it was 53.2 µM (inactive); in the assay on RPMI-8226, 40.3 µM (inactive). The GI50 is > 100 µM (inactive) in the assay on SF-539 and 38.7 µM (inactive) in the assay with UO-31.
Regarding `Clc1cc(Cl)c2c(Cl)cc(Cl)c3c2c1N=S=N3`, the GI50 with 786-0 is > 100 µM (inactive); with A549, > 100 µM (inactive); with EKVX it was > 100 µM (inactive); in the assay with HCC 2998, > 100 µM (inactive); with HCT-116, > 100 µM (inactive); in the assay with HCT-15, 67.1 µM. Also, the GI50 in the assay on IGROV-1 was > 100 µM (inactive); in the assay on LOX IMVI it was > 100 µM (inactive); in the assay on MOLT-4 it was 2.86 µM (inactive); in the assay on NCI-H522, > 100 µM (inactive); in the assay with OVCAR-4 it was > 100 µM (inactive); in the assay with RPMI-8226 it was > 100 µM (inactive). The GI50 in the assay on SF-539 and in the assay on UO-31 was > 100 µM (inactive) each time.
Regarding `Cc1cc(C)c2c(c1)N[S@@](=O)S2`, the GI50 in the assay with 786-0 is 15 µM (inactive); in the assay with A549 it was 27.9 µM (inactive); with EKVX it was 51.5 µM (inactive); in the assay with HCC 2998 it was 39.6 µM (inactive); with HCT-116, 17.1 µM (inactive); with HCT-15 it was 16.5 µM. For the same molecule, the GI50 is 19.4 µM (inactive) in the assay with IGROV-1; 15.3 µM (inactive) with LOX IMVI; 25.8 µM (inactive) with MOLT-4; 17.4 µM (inactive) in the assay with NCI-H522; 23.1 µM (inactive) in the assay on OVCAR-4; 34.7 µM (inactive) in the assay on RPMI-8226. Besides, the GI50 in the assay on SF-539 was 26.1 µM (inactive); with UO-31, 23 µM (inactive).
Regarding `COc1cc(/C=C(\C#N)c2ccccc2)cc(OC)c1`, the GI50 in the assay with 786-0 is 31.8 µM (inactive); in the assay with A549, 28.6 µM (inactive); in the assay on EKVX it was 77.1 µM (inactive); in the assay with HCC 2998 it was 67.6 µM (inactive); in the assay with HCT-116 it was 49.5 µM (inactive); with HCT-15 it was 24 µM. Moreover, the GI50 in the assay with IGROV-1 was 71 µM (inactive); with LOX IMVI, 22.1 µM (inactive); in the assay on MOLT-4, 16.4 µM (inactive); in the assay with NCI-H522 it was 32.4 µM (inactive); in the assay on OVCAR-4, > 100 µM (inactive); in the assay with RPMI-8226, 35.6 µM (inactive). In addition, the GI50 in the assay on SF-539 was 41.1 µM (inactive); with UO-31 it was 29.6 µM (inactive).
With `CCOC(=O)N(C)C(=C(F)F)C(F)(F)F`, the GI50 is 21.7 µM (inactive) in the assay on 786-0; 29 µM (inactive) with A549; 27.6 µM (inactive) in the assay on EKVX; 20.6 µM (inactive) with HCC 2998; 20.4 µM (inactive) with HCT-116; 16.3 µM with HCT-15. For the same molecule, the GI50 in the assay on Hs-578T is 30.4 µM (inactive); in the assay with IGROV-1, 21.2 µM (inactive); in the assay on LOX IMVI, 23 µM (inactive); in the assay with MCF7, 36.6 µM (inactive); with MOLT-4, 21.7 µM (inactive); with NCI/ADR-RES, 34.6 µM (inactive). Besides, the GI50 was 28 µM (inactive) in the assay with OVCAR-4; 30.9 µM (inactive) with PC-3; 16.4 µM (inactive) in the assay on RPMI-8226; 24.5 µM (inactive) in the assay on SF-539; 26.8 µM (inactive) with T47D; 32.7 µM (inactive) in the assay with UO-31.
In the case of `O=S1OC(c2ccccc2)(c2ccccc2)C(c2ccccc2)(c2ccccc2)O1`, the GI50 was > 100 µM (inactive) with 786-0; 40 µM (inactive) with A549; 48.3 µM (inactive) in the assay with EKVX; > 100 µM (inactive) with HCC 2998; 4.61 µM (inactive) with HCT-116; over 30.3 µM in the assay with HCT-15. Moreover, the GI50 with IGROV-1 was > 100 µM (inactive); with LOX IMVI, 2.56 µM (inactive); in the assay on MOLT-4 it was 5.26 µM (inactive); with NCI-H522, > 50.1 µM (inactive); in the assay on OVCAR-4, 45.2 µM (inactive); in the assay with RPMI-8226, 5.15 µM (inactive). Also, the GI50 is > 100 µM (inactive) with SF-539 and > 29.7 µM (inactive) in the assay with UO-31.
